# Source: publication PMC8228365, “Degradation Products of Tryptophan in Cell Culture Media: Contribution to Color and Toxicity” (International Journal of Molecular Sciences, 2021)
# Where two headings read alike, the source gives them in different places.
# How the values were obtained:
# CHOK1 GS cells = assay: CellTiter-Glo cytotoxicity assay in CHOK1 GS cell line; assay type: cell-based, Chinese hamster; details: Cricetulus griseus
# Protocol: To assay the potential toxicity induced in the CHO cell culture by the Trp degradation products found in this study, a cytotoxicity assay CellTiter-Glo® Luminescent Cell Viability Assay (Cat #G7572, Promega, Madison, WI, USA) was used, following the manufacturer’s instructions. Briefly, the cells were seeded with 25,000 viable cells per cavity of a 96-well opaque white cell culture plate (Thermo Fisher, Waltham, MA, USA) in 80 µL of a pre-warmed medium. […] A DMSO control was added in the same concentration range as the tryptophan degradation compounds were diluted.
# CHOK1 cells = assay: CellTiter-Glo cytotoxicity assay in CHOK1 cell line; assay type: cell-based, Chinese hamster; details: Cricetulus griseus
# Protocol: (§1) To assay the potential toxicity induced in the CHO cell culture by the Trp degradation products found in this study, a cytotoxicity assay CellTiter-Glo® Luminescent Cell Viability Assay (Cat #G7572, Promega, Madison, WI, USA) was used, following the manufacturer’s instructions. Briefly, the cells were seeded with 25,000 viable cells per cavity of a 96-well opaque white cell culture plate (Thermo Fisher, Waltham, MA, USA) in 80 µL of a pre-warmed medium. Tryptophan degradation compounds were added in triplicates to the cells, ranging from 1 mM to 46 nM. A DMSO control was added in the same concentration range as the tryptophan degradation compounds were diluted. The dose response curves were fitted with a 4PL model by GraphPad Prism v.7 (GraphPad Software, San Diego, CA, USA) after luminescence readout with an EnVision 2104 Multilabel Reader (Perkin Elmer, Waltham, MA, USA).
# CHOZN 6 cells = assay: CellTiter-Glo cytotoxicity assay in CHOZN 6 cell line; assay type: cell-based, Chinese hamster; details: Cricetulus griseus, read-out: [GI50] CHOZN 6
# Protocol: as §1
# CHOZN 10 cells = assay: CellTiter-Glo cytotoxicity assay in CHOZN 10 cell line; assay type: cell-based, Chinese hamster; details: Cricetulus griseus, read-out: [GI50] CHOZN 10
# Protocol: as §1
# [1] = Color measurement (ΔE*) of standards spiked into water; assay type: physicochemical; details: theoretical 500 µM, 1% DMSO, ΔE* > 1 deemed significant
# Protocol: (§2) Compounds were dissolved in DMSO at 50 mM and then spiked into the solutions to achieve a final compound concentration of 500µM. Some of the tested compounds formed a precipitate immediately upon spiking of the DMSO solution. As the precipitates in solution can interfere with the absorption measurement, each sample was centrifuged prior to taking absorption measurements, meaning that the final concentrations were not all at 500 µM. […] In stability experiments, eight of these nine compounds (all except 46) were present in at least one condition in the degraded water samples, and four of these nine compounds (28, 31, 38, and 46) were present in the degraded feed.
# (§3) Absorbance measurements were taken in the range of 380 nm to 780 nm (20 nm steps) of 100 µL of the samples in four technical replicates (Envision, Perkin Elmer, Waltham, MA, USA). From the absorbance values, the change in color was calculated using L*a*b* and ΔE* values according to DIN 5033-3 and DIN 6174 norms. The CIE 1931 standard observer (2°) and the D65 illuminant were selected.
# (§4) Chemical standards were prepared as 50 mM stocks in DMSO and then spiked into the aqueous solutions (either water or feed) to achieve a theoretical compound concentration of 500 µM (1% DMSO). The solutions were centrifuged, and the absorbance measurements of these solutions was measured and converted to ΔE* values as described above. The control condition was pure DMSO (1% v/v).
# [2] = Color measurement (ΔE*) of standards spiked into feed; assay type: physicochemical; details: theoretical 500 µM, 1% DMSO, ΔE* > 1 deemed significant
# Protocol: as §2, §3, §4
# CHO cells [3] = assay: CHO cell toxicity summarised across the four CHO cell lines; assay type: cell-based, Chinese hamster; details: Cricetulus griseus; across all four CHO cell lines; read-out: GI50 across all cell lines
# Protocol: as §1
# cancer cell lines = test system: cancer cell lines; parameters: method as in PMID 22047643; details: cited from earlier work
# CHO cells [4] = details: cited from earlier work
# [5] = CHO-K1, CHOK1 GS cell line, 1 mM to 46 nM, 4PL fit, read-out: [GI50] CHOK1 GS
# [6] = CHO-K1, CHOK1 cell line, 1 mM to 46 nM, 4PL fit, read-out: [GI50] CHOK1
# [7] = CHOZN 6 cell line, 1 mM to 46 nM, 4PL fit
# [8] = CHOZN 10 cell line, 1 mM to 46 nM, 4PL fit
# [9] = CHO-K1, read-out: [GI50] CHOK1 GS
smiles,measurement,setting,value
"Nc1ccccc1C(=O)CC(N)C(=O)O (stereo not shown) [Compound 1, Kynurenine]",GI50,CHOK1 GS cells; [5],> 1000 µM
"NC(CC(=O)c1ccccc1NC=O)C(=O)O (stereo not shown) [Compound 2, N-Formylkynurenine]",GI50,CHOK1 GS cells; [5],> 1000 µM
"NC(CC1C(=O)Nc2ccccc21)C(=O)O (stereo not shown) [Compound 3, 2-amino-3-(2-oxo-2,3-dihydro-1h-indol-3-yl)propanic acid (Oia)]",GI50,CHOK1 GS cells; [5],> 1000 µM
"NC(CC1(O)C(=O)Nc2ccccc21)C(=O)O [Compound 4, 3-(3-Hydroxy-2-oxo-2,3-dihydro-1H-indol-3-yl)-L-alanine (diOia)]",GI50,CHOK1 GS cells; [5],> 1000 µM
"O=C(O)c1nccc2c1[nH]c1ccccc12 [Compound 5, 9H-Pyrido[3,4-b]indole-1-carboxylic acid]",GI50,CHOK1 GS cells; [5],118 µM
same,GI50,CHOK1 cells; [6],158 µM
same,GI50,CHOZN 6 cells; [7],76.7 µM
same,GI50,CHOZN 10 cells; [8],75.5 µM
same,Color change as measured by ΔE* in water,[1],significant color change
same,Color change as measured by ΔE* in feed,[2],significant color change
"O=C(O)C1CC2(O)c3ccccc3NC2N1 (stereo not shown) [Compound 6, 1,2,3,3a,8,8a-Hexahydro-3a-hydroxypyrrolo[2,3-b]indole-2-carboxylic acid (PIC)]",GI50,CHOK1 GS cells; [5],> 1000 µM
"c1ccc2ncccc2c1 [Compound 8, Quinoline]",GI50,CHOK1 GS cells; [9],> 1000 µM
NCCc1c(O)[nH]c2ccccc12 [Compound 9],GI50,CHOK1 GS cells; [5],> 1000 µM
OC12CCNC1Nc1ccccc12 (stereo not shown) [Compound 10],GI50,CHOK1 GS cells; [5],> 1000 µM
"NCCc1c[nH]c2ccccc12 [Compound 11, Tryptamine]",GI50,CHOK1 GS cells; [9],> 1000 µM
"O=CCc1c[nH]c2ccccc12 [Compound 12, Indole-3-acetaldehyde]",GI50,CHOK1 GS cells; [5],64.5 µM
same,GI50,CHOK1 cells; [6],116 µM
same,GI50,CHOZN 6 cells; [7],54.5 µM
same,GI50,CHOZN 10 cells; [8],92.3 µM
"N[C@@H](Cc1c(Cc2c[nH]c3ccccc23)[nH]c2ccccc12)C(=O)O [Compound 14, 2-(3-Indolylmethyl)-L-tryptophan]",GI50,CHOK1 GS cells; [5],> 1000 µM
O=C(O)c1cc2c([nH]c3ccccc32)c(-c2ccccc2)n1 [Compound 16],GI50,CHOK1 GS cells; [5],76.6 µM
same,GI50,CHOK1 cells; [6],74.9 µM
same,GI50,CHOZN 6 cells; [7],88.5 µM
same,GI50,CHOZN 10 cells; [8],57.6 µM
same,Color change as measured by ΔE* in water,[1],significant color change
"O=Cc1c[nH]c2ccccc12 [Compound 18, Indole-3-carboxaldehyde]",GI50,CHOK1 GS cells; [5],295 µM
same,GI50,CHOK1 cells; [6],226 µM
same,GI50,CHOZN 6 cells; [7],236 µM
same,GI50,CHOZN 10 cells; [8],258 µM
same,GI50,CHO cells [3],> 226 µM
"O=C1Cc2ccccc2N1 [Compound 19, 2-Oxindole]",GI50,CHOK1 GS cells; [5],> 1000 µM
"Oc1ccnc2ccccc12 [Compound 20, 4-Hydroxyquinoline]",GI50,CHOK1 GS cells; [9],> 1000 µM
"O=C(O)c1ccnc2ccccc12 [Compound 21, 4-Quinolinecarboxylic acid]",GI50,CHOK1 GS cells; [5],> 1000 µM
"CC1NC(C(=O)O)Cc2c1[nH]c1ccccc21 (stereo not drawn) [Compound 23, 1-Methyl-2,3,4,9-tetrahydro-1H-beta-carboline-3-carboxylic acid]",GI50,CHOK1 GS cells; [5],> 1000 µM
O=C(O)C1Cc2c([nH]c3ccccc23)C=N1 (stereo not shown) [Compound 24],GI50,CHOK1 GS cells; [5],343 µM
same,GI50,CHOK1 cells; [6],312 µM
same,GI50,CHOZN 6 cells; [7],314 µM
same,GI50,CHOZN 10 cells; [8],306 µM
same,GI50,CHO cells [3],> 226 µM
same,Color change as measured by ΔE* in water,[1],significant color change
same,Color change as measured by ΔE* in feed,[2],significant color change
CC1NC(C(=O)O)CC12C(=O)Nc1ccccc12 (stereo not shown) [Compound 25],GI50,CHOK1 GS cells; [5],> 1000 µM
"c1ccc2c(c1)[nH]c1cnccc12 [Compound 27, Norharmane]",GI50,CHOK1 GS cells; [9],127 µM
same,GI50,"CHOK1 cells; CHO-K1, read-out: [GI50] CHOK1",74.8 µM
same,GI50,CHOZN 6 cells,98.5 µM
same,GI50,CHOZN 10 cells,64.5 µM
"Cc1nccc2c1[nH]c1ccccc12 [Compound 28, Harmane]",GI50,CHOK1 GS cells; [9],170 µM
same,GI50,"CHOK1 cells; CHO-K1, read-out: [GI50] CHOK1",74.9 µM
same,GI50,CHOZN 6 cells,65.5 µM
same,GI50,CHOZN 10 cells,77.3 µM
same,Color change as measured by ΔE* in feed,[2],significant color change
OCc1nccc2c1[nH]c1ccccc12 [Compound 29],GI50,CHOK1 GS cells; [5],157 µM
same,GI50,CHOK1 cells; [6],389 µM
same,GI50,CHOZN 6 cells; [7],> 1000 µM
same,GI50,CHOZN 10 cells; [8],347 µM
"O=C(O)c1cc2c([nH]c3ccccc32)c(C(=O)c2c[nH]c3ccccc23)n1 [Compound 31, 1-(1H-Indol-3-ylcarbonyl)-9H-pyrido[3,4-b]indole-3-carboxylic acid]",GI50,CHOK1 GS cells; [5],34.6 µM
same,GI50,CHOK1 cells; [6],21.6 µM
same,GI50,CHOZN 6 cells; [7],13 µM
same,GI50,CHOZN 10 cells; [8],14.4 µM
same,GI50,CHO cells [3],10 to 22 µM
same,Color change as measured by ΔE* in feed,[2],significant color change
same,toxicity against some cancer cell lines,cancer cell lines,demonstrated toxicity against some cancer cell lines
"O=C(c1c[nH]c2ccccc12)c1nccc2c1[nH]c1ccccc12 [Compound 32, 1H-Indol-3-yl-9H-pyrido[3,4-b]indol-1-ylmethanone]",GI50,CHOK1 GS cells; [5],> 1000 µM
same,toxicity against some cancer cell lines,cancer cell lines,demonstrated toxicity against some cancer cell lines
O=C(O)c1cc2c([nH]c3ccccc32)c(-c2ccnc3ccccc23)n1 [Compound 38],GI50,CHOK1 GS cells; [5],118 µM
same,GI50,CHOK1 cells; [6],124 µM
same,GI50,CHOZN 6 cells; [7],98.9 µM
same,GI50,CHOZN 10 cells; [8],114 µM
same,Color change as measured by ΔE* in water,[1],significant color change
Cc1ncc(CO)c(C2NC(C(=O)O)Cc3c2[nH]c2ccccc32)c1O (stereo not shown) [Compound 42],GI50,CHOK1 GS cells; [5],> 1000 µM
Cc1nc(C(=O)O)cc2c1[nH]c1ccccc12 [Compound 45],GI50,CHOK1 GS cells; [5],> 1000 µM
"NC(=O)Cc1c[nH]c2ccccc12 [Compound 47, 3-Indoleacetamide]",GI50,CHOK1 GS cells; [5],> 1000 µM
"CC(C)CC1NC(C(=O)O)Cc2c1[nH]c1ccccc21 (stereo not shown) [Compound 56, 2,3,4,9-Tetrahydro-1-(2-methylpropyl)-1H-pyrido[3,4-b]indole-3-carboxylic acid]",GI50,CHOK1 GS cells; [5],> 1000 µM
"CC(=O)c1nccc2c1[nH]c1ccccc12 [Compound 62, 1-Acetyl-β-carboline]",GI50,CHOK1 GS cells; [5],> 1000 µM
"O=C(O)CCC(=O)O [Compound 66, succinic acid]",toxicity to CHO cells,CHO cells [4],not toxic to CHO cells
"O=C(O)CCC(=O)C(=O)O [aKG, a-Ketoglutaric acid]",effect on the CHO cell culture,CHO cells [4]; up to 50 mM,no detrimental effect
